# Measured values as given in US11684623B2, “Soluble melatonin tripartate adduct for the prevention and treatment of rare and severe eye sight-threatening conditions and neuro-ophthalmic disorders” (WORPHMED SRL, priority 2020, dated 2023).
# Experiment: Solubility in water according to USP and EP
# Type: physicochemical
# Text: wherein melatonin is complexed with adenosine and glycine. Adenosine is a purine nucleoside consisting of adenine attached to a ribofuranose moiety via a β-N9-glycosidic bond and the low-chain amino acid glycine is a C2 amino acid having a single hydrogen atom as its side chain.
smiles,measurement,value
"COc1ccc2[nH]cc(CCNC(C)=O)c2c1 [melatonin, N-acetyl-5-methoxytryptamine]","Solubility in water, Results",0.1 mg/1.0 ml
